PubChem BioAssay (NCI)
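GI50 marks 50% less growth. TGI is the concentration that stops growth completely.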

Tests used:
Assay in all cases: NCI-60 cell line screen, 384-well format
786-0 renal = test system: 786-0 renal
A498 renal = test system: A498 renal
A549 NSCLC = test system: A549 NSCLC
ACHN renal = test system: ACHN renal
BT-549 breast = test system: BT-549 breast
CAKI-1 renal = test system: CAKI-1 renal
CCRF-CEM leukemia = test system: CCRF-CEM leukemia
COLO 205 colon = test system: COLO 205 colon
EKVX NSCLC = test system: EKVX NSCLC
HCC-2998 colon = test system: HCC-2998 colon
HCT-116 colon = test system: HCT-116 colon
HCT-15 colon = test system: HCT-15 colon
HL-60(TB) leukemia = test system: HL-60(TB) leukemia
HOP-62 NSCLC = test system: HOP-62 NSCLC
HOP-92 NSCLC = test system: HOP-92 NSCLC
HS 578T breast = test system: HS 578T breast
HT29 colon = test system: HT29 colon
IGROV1 ovarian = test system: IGROV1 ovarian
K-562 leukemia = test system: K-562 leukemia
KM12 colon = test system: KM12 colon
M14 melanoma = test system: M14 melanoma
MALME-3M melanoma = test system: MALME-3M melanoma
MCF7 breast = test system: MCF7 breast
MDA-MB-435 melanoma = test system: MDA-MB-435 melanoma
MDA-MB-468 breast = test system: MDA-MB-468 breast
MOLT-4 leukemia = test system: MOLT-4 leukemia
NCI-H226 lung = test system: NCI-H226 lung
NCI-H23 lung = test system: NCI-H23 lung
NCI-H322M lung = test system: NCI-H322M lung
NCI-H460 NSCLC = test system: NCI-H460 NSCLC
NCI-H522 lung = test system: NCI-H522 lung
NCI/ADR-RES ovarian = test system: NCI/ADR-RES ovarian
OVCAR-3 ovarian = test system: OVCAR-3 ovarian
OVCAR-4 ovarian = test system: OVCAR-4 ovarian
OVCAR-5 ovarian = test system: OVCAR-5 ovarian
OVCAR-8 ovarian = test system: OVCAR-8 ovarian
PC-3 prostate = test system: PC-3 prostate
RPMI-8226 leukemia = test system: RPMI-8226 leukemia
RXF 393 renal = test system: RXF 393 renal
SF-268 CNS = test system: SF-268 CNS
SF-295 CNS = test system: SF-295 CNS
SF-539 CNS = test system: SF-539 CNS
SK-MEL-28 melanoma = test system: SK-MEL-28 melanoma
SK-MEL-5 melanoma = test system: SK-MEL-5 melanoma
SK-OV-3 ovarian = test system: SK-OV-3 ovarian
SN12C renal = test system: SN12C renal
SNB-19 CNS = test system: SNB-19 CNS
SNB-75 CNS = test system: SNB-75 CNS
SW-620 colon = test system: SW-620 colon
T-47D breast = test system: T-47D breast
TK-10 renal = test system: TK-10 renal
U251 glioblastoma = test system: U251 glioblastoma
UACC-257 melanoma = test system: UACC-257 melanoma
UO-31 renal = test system: UO-31 renal

COc1cc(C(=O)NC2CCN(C)CC2)ccc1Nc1ncc2c(n1)N(C1CCCC1)CC(F)(F)C(=O)N2C
GI50 ([…]-0 renal): 41 nM | TGI (786-0 renal): 1350 nM | GI50 (A498 renal): 106 nM | TGI (A498 renal): 12300 nM | GI50 (A549 NSCLC): < 10 nM | TGI (A549 NSCLC): 707 nM | GI50 (ACHN renal): 666 nM | TGI (ACHN renal): 14100 nM | GI50 (BT-549 breast): 11.3 nM | TGI (BT-549 breast): 159 nM | GI50 (CAKI-1 renal): 194 nM | TGI (CAKI-1 renal): 10600 nM | GI50 (CCRF-CEM leukemia): < 10 nM | TGI (CCRF-CEM leukemia): < 10 nM | GI50 (COLO 205 colon): < 10 nM | TGI (COLO 205 colon): 10700 nM | GI50 (EKVX NSCLC): 79.3 nM | TGI (EKVX NSCLC): 2700 nM | GI50 (HCC-2998 colon): 11.6 nM | TGI (HCC-2998 colon): 39.6 nM | GI50 (HCT-116 colon): < 10 nM | TGI (HCT-116 colon): 1170 nM | GI50 (HCT-15 colon): 219 nM | TGI (HCT-15 colon): 1220 nM | GI50 (HL-60(TB) leukemia): < 10 nM | TGI (HL-60(TB) leukemia): < 10 nM | GI50 (HOP-62 NSCLC): < 10 nM | TGI (HOP-62 NSCLC): 2210 nM | GI50 (HOP-92 NSCLC): 20.7 nM | TGI (HOP-92 NSCLC): 902 nM | GI50 (HS 578T breast): < 10 nM | TGI (HS 578T breast): 31.1 nM | GI50 (HT29 colon): < 10 nM | TGI (HT29 colon): 21.5 nM | GI50 (IGROV1 ovarian): 18.6 nM | TGI (IGROV1 ovarian): 2070 nM | GI50 (K-562 leukemia): < 10 nM | TGI (K-562 leukemia): 19.7 nM | GI50 (KM12 colon): < 10 nM | TGI (KM12 colon): 11200 nM | GI50 (M14 melanoma): 12.5 nM | TGI (M14 melanoma): 74.3 nM | GI50 (MALME-3M melanoma): 29.5 nM | TGI (MALME-3M melanoma): 1590 nM | GI50 (MCF7 breast): < 10 nM | TGI (MCF7 breast): 1440 nM | GI50 (MDA-MB-435 melanoma): < 10 nM | TGI (MDA-MB-435 melanoma): 12.2 nM | GI50 (MDA-MB-468 breast): < 10 nM | TGI (MDA-MB-468 breast): < 10 nM | GI50 (MOLT-4 leukemia): < 10 nM | TGI (MOLT-4 leukemia): < 10 nM | GI50 (NCI-H226 lung): 1560 nM | TGI (NCI-H226 lung): 6190 nM | GI50 (NCI-H23 lung): < 10 nM | TGI (NCI-H23 lung): 20 nM | GI50 (NCI-H322M lung): 842 nM | TGI (NCI-H322M lung): 11800 nM | GI50 (NCI-H460 NSCLC): 11.5 nM | TGI (NCI-H460 NSCLC): 35.5 nM | GI50 (NCI-H522 lung): < 10 nM | TGI (NCI-H522 lung): < 10 nM | GI50 (NCI/ADR-RES ovarian): 1660 nM | TGI (NCI/ADR-RES ovarian): 3980 nM | GI50 (OVCAR-3 ovarian): < 10 nM | TGI (OVCAR-3 ovarian): < 10 nM | GI50 (OVCAR-4 ovarian): 1640 nM | TGI (OVCAR-4 ovarian): 7570 nM | GI50 (OVCAR-5 ovarian): 12.2 nM | TGI (OVCAR-5 ovarian): 1290 nM | GI50 (OVCAR-8 ovarian): 12.3 nM | TGI (OVCAR-8 ovarian): 29.3 nM | GI50 (PC-3 prostate): 33.8 nM | TGI (PC-3 prostate): 13200 nM | GI50 (RPMI-8226 leukemia): 18.8 nM | TGI (RPMI-8226 leukemia): 43.7 nM | GI50 (RXF 393 renal): < 10 nM | TGI (RXF 393 renal): 35 nM | GI50 (SF-268 CNS): < 10 nM | TGI (SF-268 CNS): < 10 nM | GI50 (SF-295 CNS): 29.9 nM | TGI (SF-295 CNS): 134 nM | GI50 (SF-539 CNS): 17.2 nM | TGI (SF-539 CNS): 263 nM | GI50 (SK-MEL-28 melanoma): 46.4 nM | TGI (SK-MEL-28 melanoma): 4740 nM | GI50 (SK-MEL-5 melanoma): < 10 nM | TGI (SK-MEL-5 melanoma): 180 nM | GI50 (SK-OV-3 ovarian): 11.4 nM | TGI (SK-OV-3 ovarian): 494 nM | GI50 (SN12C renal): 43.9 nM | TGI (SN12C renal): 1750 nM | GI50 (SNB-19 CNS): < 10 nM | TGI (SNB-19 CNS): 3080 nM | GI50 (SNB-75 CNS): 57.4 nM | TGI (SNB-75 CNS): 7490 nM | GI50 (SW-620 colon): < 10 nM | TGI (SW-620 colon): 97.4 nM | GI50 (T-47D breast): 28.2 nM | TGI (T-47D breast): 365 nM | GI50 (TK-10 renal): 1090 nM | TGI (TK-10 renal): 4950 nM | GI50 (U251 glioblastoma): < 10 nM | TGI (U251 glioblastoma): 1440 nM | GI50 (UACC-257 melanoma): 21.7 nM | TGI (UACC-257 melanoma): 2060 nM | GI50 (UO-31 renal): 1310 nM | TGI (UO-31 renal): 7870 nM
